Experimental findings from patent US9937152B2, “Derivative of styrene-maleic acid copolymer” (priority 2013, dated 2018) are described below.

The nature of series [1]: in vivo. Conditions: mouse.
Series [2] deals with colon cancer (C26). In kind it is in vivo, Balb mice.
Description: SMA-THP and pirarubicin (THP) were administered intravenously to mice at the respective dose shown in Table 2 at Day 10 from the inoculation of cancer in mice, and the antitumor effect was evaluated at Day 50. Subsequently, 5×10^5 colon cancer (C26) cells were inoculated in the back in Balb mice and the model animals with tumor size of 5 to 6 mm at about Day 7 to 9 were treated.
Where [3] appears, read: dose 3 mg/kg (MTD amount) i.v. at Day 10, evaluated at Day 50.

In the case of `COc1cccc2c1C(=O)c1c(O)c3c(c(O)c1C2=O)C[C@@](O)(C(=O)CO)C[C@@H]3O[C@H]1C[C@H](N)[C@H](O[C@@H]2CCCCO2)[C@H](C)O1` [THP, pirarubicin], the MTD in series [1] (Balb, iv) turned out to be 3 mg/kg. The compound further returned an LD50 in series [1] of 14.4 mg/kg. For the same compound, in series [2] (setting [3]), the “Number of Metastatic Cancerous Nodes/Mouse: (1~5) (+), mice/group” value is reported as 2/5; the “Number of Metastatic Cancerous Nodes/Mouse: (>6) (++), mice/group” value was 3/5; the “Number of Metastatic Cancerous Nodes/Mouse: No Metastasis (−), mice/group” value is reported as 0/5. Moreover, the “effect on the metastatic cancers” value in series [2] (maximum tolerated dose of 3 mg/kg) was “almost ineffective”.

The term LD50 denotes the dose expected to kill half of the subjects tested. Higher therefore signals lower toxicity.
